Experiments:
[1] = Pharmacokinetics (half life) in rat after intravenous administration; type: in vivo; conditions: plasma, male Wistar Han rats; for half-life: male, Wistar Han, rat, iv, 0.5 mg/kg, read-out: Half Life (t1/2) (converted)
Protocol: The half life of compounds described in this application were evaluated in rat. Shown in Table 9 are T½ of selected examples in rat (Wister Han) for selected compounds of the present invention. In addition Table 9 includes half life data for compounds disclosed in International Patent Application published as WO 2013/043621.
The pharmacokinetics of the compounds disclosed in Table 9 were studied in male Wistar Han rats after intravenous (IV) administration. For IV dosing at 0.5 mg/kg in rat, compounds were formulated as a solution in DMSO/PEG400/water (20/60/20, by vol.). Plasma samples obtained from dosed animals were prepared for analysis by means of a single step protein precipitation technique by adding 200 μL of acetonitrile to 50 μL aliquots of individual subject samples. Samples were mixed by vortex for homogeneity and then subjected to centrifugation at 3500 rpm for 10 min. The supernatant (200 μL) was collected and injected into the LC-MS/MS for analysis. Pharmacokinetic parameters were calculated using established non-compartmental methods.

human HIF-PHD2 = molecular target: T1, human HIF-PHD2 (Homo sapiens, UniProt Q9GZT9); experiment: HIF-PHD2 inhibition: hydroxylation of HIF-1α peptide, time resolved fluorescence; type: biochemical; conditions: FLAG-tagged full length PHD2; 0.2 μM 2-oxoglutarate, 0.5 μM HIF-1α peptide
T1 construct: FLAG-tagged full length PHD2 expressed in and purified from baculovirus-infected Sf9 cells; FLAG; made in house; host or cells: baculovirus-infected Sf9 cells
T1 sequence (Q9GZT9 whole entry): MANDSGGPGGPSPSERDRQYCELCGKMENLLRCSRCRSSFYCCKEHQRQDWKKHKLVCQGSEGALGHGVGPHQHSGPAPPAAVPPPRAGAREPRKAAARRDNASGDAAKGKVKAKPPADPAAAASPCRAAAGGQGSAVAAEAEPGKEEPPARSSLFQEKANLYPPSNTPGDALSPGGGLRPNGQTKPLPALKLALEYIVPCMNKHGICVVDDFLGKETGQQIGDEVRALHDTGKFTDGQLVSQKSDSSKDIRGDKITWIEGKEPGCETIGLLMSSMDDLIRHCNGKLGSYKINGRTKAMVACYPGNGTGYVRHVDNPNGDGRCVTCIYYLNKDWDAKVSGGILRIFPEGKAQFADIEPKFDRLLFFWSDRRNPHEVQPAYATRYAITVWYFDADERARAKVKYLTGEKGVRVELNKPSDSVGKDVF
Protocol: To each well of a 384-well plate, 1 μL of test compounds in DMSO (final concentration ranging from 0.3 nM to 10 μM) were added into 20 μl of assay buffer (50 mM Tris pH 7.4/0.01% Tween-20/0.1 mg/ml bovine serum albumin/10 μM ferrous sulfate/1 mM sodium ascorbate/20 μg/ml catalase) containing 0.15 μg/ml FLAG-tagged full length PHD2 expressed in and purified from baculovirus-infected Sf9 cells. After a 5 min preincubation at room temperature, the enzymatic reactions were initiated by the addition of 4 μL of substrates {final concentrations of 0.2 μM 2-oxoglutarate and 0.5 μM HIF-1α peptide biotinyl-DLDLEMLAPYIPMDDDFQL (SEQ ID NO: 1)}. After incubation for 45 minutes at room temperature, the reactions were terminated by the addition of a 25 μL quench/detection mix to a final concentration of 1 mM ortho-phenanthroline, 0.1 mM EDTA, 0.5 nM anti-(His)6 LANCE reagent (Perkin-Elmer Life Sciences), 100 nM AF647-labeled streptavidin (Invitrogen), and 2 μg/ml (His)6-VHL complex {S. Tan Protein Expr. Purif. 21, 224-234 (2001)} and the signals were developed for 30 minutes at room temperature. The ratio of time resolved fluorescence signals at 665 and 620 nm was determined, and percent inhibition was calculated relative to the high control samples (DMSO treated) run in parallel, after background subtraction.

half-life [1]	IC50 (human HIF-PHD2)	Half Life (t1/2) ([1]; IV 0.5 mg/kg)	Compound
0.69 h	2.5 nM	–	CC(NC(=O)c1cnc(C(=O)NCCC(=O)O)nc1O)c1ccc(-c2ccc(F)cc2)cc1 (racemic) [Example 44, 3-(5-((1-(4′-fluoro-[1,1′-biphenyl]-4-yl)ethyl)carbamoyl)-4-hydroxypyrimidine-2-carboxamido)propanoic acid]
1.9 h	2.3 nM	–	C[C@@H](CNC(=O)c1ncc(C(=O)NC(c2ccccc2)c2ccccc2)c(O)n1)C(=O)O (single isomer, unassigned) [Example 1]
1.45 h	1.7 nM	–	C[C@H](CNC(=O)c1ncc(C(=O)NC(c2ccccc2)c2ccccc2)c(O)n1)C(=O)O (single isomer, unassigned) [Example 2]
1.36 h	16 nM	–	COc1ccc(C(NC(=O)c2cnc(C(=O)NCC(C)C(=O)O)nc2O)c2ccc3cc(OC)ccc3n2)cc1 (single isomer, unassigned) [Example 14, (R) or (S)-3-(4-hydroxy-5-(((4-methoxyphenyl)(6-methoxyquinolin-2-yl)methyl)carbamoyl)pyrimidine-2-carboxamido)-2-methylpropanoic acid]
0.99 h	10 nM	–	COc1ccc(C(NC(=O)c2cnc(C(=O)NCC(C)C(=O)O)nc2O)c2ccc(OC)cc2)cc1 (single isomer, unassigned) [Example 15, (R) or (S)-3-(5-((bis(4-methoxyphenyl)methy)carbamoyl)-4-hydroxypyrimidine-2-carboxamido)-2-methylpropanoic acid]
0.88 h	1.3 nM	–	CC(CNC(=O)c1ncc(C(=O)NC2(c3ccc(Br)cc3)CC2)c(O)n1)C(=O)O (single isomer, unassigned) [Example 16, (R) or (S)-3-(5-((1-(4-bromophenyl)cyclopropyl)carbamoyl)-4-hydroxypyrimidine-2-carboxamido)-2-methylpropanoic acid]
–	0.8 nM	1.36 h	CC(CNC(=O)c1ncc(C(=O)NC2(c3ccc(Br)cc3)CC2)c(O)n1)C(=O)O (single isomer, unassigned) [Example 17, (R) or (S)-3-(5-((1-(4-bromophenyl)cyclopropyl)carbamoyl)-4-hydroxypyrimidine-2-carboxamido)-2-methylpropanoic acid]
0.28 h	–	–	O=C(O)CCNC(=O)c1ncc(C(=O)NC(c2ccccc2)c2ccccc2)c(O)n1 [Example 2-11 from WO2013/040789, reference compound]
0.56 h	–	–	O=C(O)CNC(=O)c1ncc(C(=O)NC(c2ccccc2)c2ccccc2)c(O)n1 [Example 2-12 from WO2013/040789, reference compound]
0.3 h	–	–	O=C(O)c1cc(-c2ncc(C(=O)NC(c3ccccc3)c3ccccc3)c(O)n2)no1 [Example 2-16 from WO2013/040789, reference compound]
4.78 h	8.5 nM	–	O=C(NCC1(C(=O)O)CC1)c1ncc(C(=O)NC(c2ccccc2)c2ccccc2)c(O)n1 [Example 4, 1-((5-(benzhydrylcarbamoyl)-4-hydroxypyrimidine-2-carboxamido)methyl)cyclopropanecarboxylic acid]
1.68 h	8.9 nM	–	O=C(N[C@@H](Cc1c[nH]c2ccccc12)C(=O)O)c1ncc(C(=O)NC(c2ccccc2)c2ccccc2)c(O)n1 [Example 6, (2S)-2-(5-(benzhydrylcarbamoyl)-4-hydroxypyrimidine-2-carboxamido)-3-(3aH-indo1-3-yl)propanoic acid]
1.02 h	1.4 nM	–	O=C(NC[C@H](O)C(=O)O)c1ncc(C(=O)NC(c2ccccc2)c2ccccc2)c(O)n1 [Example 7, (S)-3-(5-(benzhydrylcarbamoyl)-4-hydroxypyrimidine-2-carboxamido)-2-hydroxypropanoic acid]
6.76 h	2.7 nM	–	COc1ccc([C@@H](NC(=O)c2cnc(C(=O)NCCC(=O)O)nc2O)c2ccccc2)cc1 [Example 36]
0.69 h	2.4 nM	–	COc1ccc([C@H](NC(=O)c2cnc(C(=O)NCCC(=O)O)nc2O)c2ccccc2)cc1 [Example 37]
1.59 h	1.7 nM	–	COc1ccc(C(NC(=O)c2cnc(C(=O)NCCC(=O)O)nc2O)c2ccc3c(c2)CCO3)cc1 (stereo not shown) [Example 39, 3-(5-(((2,3-dihydrobenzofuran-5-yl)(4-methoxyphenyl)methyl)carbamoyl)-4-hydroxypyrimidine-2-carboxamido)propanoic acid]
–	0.8 nM	–	COc1ccc(C(NC(=O)c2cnc(C(=O)NCCC(=O)O)nc2O)c2ccc(OC)nc2)cn1 [Example 41, 3-(5-((bis(6-methoxypyridin-3-yl)methyl)carbamoyl)-4-hydroxypyrimidine-2-carboxamido)propanoic acid]
–	0.5 nM	–	O=C(O)CCNC(=O)c1ncc(C(=O)NC(c2ccc(Cl)cc2)c2ccc(Cl)cc2)c(O)n1 [Example 42, 3-(5-((bis(4-chlorophenyl)methyl)carbamoyl)-4-hydroxypyrimidine-2-carboxamido)propanoic acid]
0.62 h	0.4 nM	–	O=C(O)CCNC(=O)c1ncc(C(=O)NC2(c3ccc(Br)cc3)CC2)c(O)n1 [Example 45, 3-(5-((1-(4-bromophenyl)cyclopropyl)carbamoyl)-4-hydroxypyrimidine-2-carboxamido)propanoic acid]
–	1 nM	–	CC(NC(=O)c1cnc(C(=O)NCCC(=O)O)nc1O)c1ccc(Oc2ccccc2)cc1 (stereo not shown) [Example 46, 3-(4-hydroxy-5-((1-(4-phenoxyphenyl)ethyl)carbamoyl)pyrimidine-2-carboxamido)propanoic acid]
–	1.1 nM	–	O=C(O)CCNC(=O)c1ncc(C(=O)NC(c2ccc(Br)cc2)C(F)(F)F)c(O)n1 (stereo not shown) [Example 47, 3-(5-((1-(4-bromophenyl)-2,2,2-trifluoroethyl)carbamoyl)-4-hydroxypyrimidine-2-carboxamido)propanoic acid]
–	0.7 nM	–	COc1ccc(C(NC(=O)c2cnc(C(=O)NCCC(=O)O)nc2O)c2ccc(OC)cc2)cc1 [Example 48, 3-(5-((bis(4-methoxyphenyl)methyl)carbamoyl)-4-hydroxypyrimidine-2-carboxamido)propanoic acid]
–	1 nM	–	O=C(O)CCNC(=O)c1ncc(C(=O)NC(c2ccccc2)c2ccc(C(F)(F)F)cc2)c(O)n1 (stereo not shown) [Example 49, 3-(4-hydroxy-5-((phenyl(4-(trifluoromethyl)phenyl)methyl)carbamoyl)pyrimidine-2-carboxamido)propanoic acid]

Source: US20170247336A1 (MERCK SHARP & DOHME CORP., priority 2014, published 2017)
